According to patent US20090124634A1, “Novel dipodazine compounds and applications” (Viogard AB, priority 2005, published 2009):
Marks after values point to notes of the source that are not given here.

Experiments:
B. improvisus = assay: Field experiment, paint-coated panels in sea water: recruitment/settlement of B. improvisus; type: in vivo, Balanus improvisus; conditions: for Reduction of recruitment (%): B. improvisus; for reduction of settlement of B. Improvisus: panels eight weeks in sea water, 0.2-1.5 m depth (FIG. 1)
Description: (§1) The effects of barettin and 8,9-Dihydrobarettin on B. improvisus recruitment was studied, by formulating different paints with different concentrations of the active substances.
(§2) The paints were commercially available paints and the four different paints are listed below:
One compound according to the present invention, benzo[g]dipodazine, which is the at present preferred compound, was formulated in a commercially available paint (SPF, from Lotréc, Lidingö, Sweden). The concentration of benzo[g]dipodazine in the paint was 0.1% and 0.01% based on the weight of the paint.
The paint was coated on panels in the same way as described above in Example 1 (comparative example). A control panel was coated with the same paint without benzo[g]dipodazine. All panels were immersed in sea water at a depth of 0.2-1.5 m, and maintained in the water for eight weeks.

M. edulis = assay: Field experiment, paint-coated panels in sea water: recruitment of M. edulis; type: in vivo, Mytilus edulis
Description: as §1, §2
Also, the effects of barettin and 8,9-dihydrobarettin on M. edulis recruitment were studied. When analyzing the data on the recruitment of M. edulis in the present field experiment, in a 3-factor analysis of variance with substance, paint and concentration as fixed factors, there was a significant interaction between the factors substance and paint. The main contribution to the significant interaction between the factors substance and paint is the result of barettin in combination with the SPF paint. […] However, the SNK-test could not reveal any significant differences between data.

[1] = test system: cyprids larvae of B. improvisus; conditions: B. improvisus cypris larvae, from ref [27], cited from earlier work; for EC50: read-out: EC50, inhibition of settlement of cypris larvae
[2] = test system: cyprids larvae of B. improvisus; assay: Larval settlement assay (barnacle cyprids in dishes), incl. reversibility test; type: in vivo, Balanus improvisus
Description: Barnacle cyprids larvae of B. improvisus was reared in the laboratory as described in [2]. The settlement propensity and mortality of barnacle cyprids were used to evaluate the bioactive effect of barettin and analogues. Stock solutions of all compounds shown in FIG. 4 were prepared by dissolving the compounds in dimethylsulfoxide (DMSO). The stock solutions were further diluted in filtered seawater (FSW, Millipore 0.2 μm) to yield the desired concentrations of 1×10^−4, 1×10^−3 and 1×10^−2 mg ml^−1. The settlement assays were performed using Petri dishes of untreated polystyrene (Nunc no 240045, Ø 48 mm) containing 10 ml of FSW to which 20±5 cyprids were added. Cyprids were used on their first or second day after moulting. Each treatment with a specific analogue was replicated 4 times and dishes with FSW only or FSW containing DMSO (0.1%) served as controls. Dishes were maintained for 3-4 days at room temperature (21±2° C.) in the prevailing light:dark cycle of 9:15 h. The effects of the different analogues, classified as either neutral, stimulatory or inhibitory, on the cyprids, were determined by examining the dishes under a stereo microscope and checking for 1) attached and metamorphosed individuals, 2) non-metamorphosed, alive, non-attached cyprids and 3) dead cyprids. Each substance was tested at least in two independent experimental series. […]

[3] = FabiEco paint, 0.01% in paint, listed as 8,9-dihydro-barettin
[4] = FabiEco paint, 0.1% in paint, listed as 8,9-dihydro-barettin
[5] = SPF paint, 0.01% in paint, vs control panels
[6] = SPF paint, 0.1% in paint, vs control panels
[7] = SPF paint, 0.01% in paint, 8-week period
[8] = SPF paint, 0.1% in paint, 8-week period

Row | Compound | Reduction of recruitment (%) (B. improvisus; FabiEco paint, 0.01% in paint) | Reduction of recruitment (%) (B. improvisus; FabiEco paint, 0.1% in paint) | Reduction of recruitment (%) (B. improvisus; H2000 paint, 0.01% in paint) | Reduction of recruitment (%) (B. improvisus; H2000 paint, 0.1% in paint) | Reduction of recruitment (%) (B. improvisus; [5]) | Reduction of recruitment (%) (B. improvisus; [6]) | Reduction of recruitment (%) (B. improvisus; TF paint, 0.01% in paint) | Reduction of recruitment (%) (B. improvisus; TF paint, 0.1% in paint) | Reduction of recruitment (%) (M. edulis; FabiEco paint, 0.01% in paint) | Reduction of recruitment (%) (M. edulis; FabiEco paint, 0.1% in paint) | Reduction of recruitment (%) (M. edulis; H2000 paint, 0.01% in paint) | Reduction of recruitment (%) (M. edulis; H2000 paint, 0.1% in paint) | Reduction of recruitment (%) (M. edulis; [7]) | Reduction of recruitment (%) (M. edulis; [8]) | Reduction of recruitment (%) (M. edulis; TF paint, 0.01% in paint) | Reduction of recruitment (%) (M. edulis; TF paint, 0.1% in paint) | effect on larval mortality [1] | EC50 [1] [µM] | also measured
1 | N=C(N)NCCC[C@@H]1NC(=O)[C@H](Cc2c[nH]c3cc(Br)ccc23)NC1=O [8,9-dihydrobarettin] | 59 | 69 | 46 | 20 | 43 | 61 | −10 | −1 | 50 | 67 | 53 | 39 | 52 | 72 | −28% | 3.8 | none of the compounds displayed any significant effect on larval mortality | 7.9 | Reduction of recruitment (%) (B. improvisus; [3]): 59* %; Reduction of recruitment (%) (B. improvisus; [4]): 69*** %; Reduction of recruitment (%) (B. improvisus; SPF paint, 0.1% in paint, vs control panels, listed as 8,9-dihydro-barettin): 61** %; Reduction of recruitment (%) (M. edulis; [3]): 50* %; Reduction of recruitment (%) (M. edulis; [4]): 67** %; Reduction of recruitment (%) (M. edulis; H2000 paint, 0.01% in paint, listed as 8,9-dihydro-barettin): 53* %; Reduction of recruitment (%) (M. edulis; SPF paint, 0.1% in paint, 8-week period, listed as 8,9-dihydro-barettin): 72** %
2 | N=C(N)NCCC[C@@H]1NC(=O)/C(=C/c2c[nH]c3cc(Br)ccc23)NC1=O [barettin] | 45 | 49 | 28 | 23 | 67 | 89 | 25 | 17 | 51 | 47 | 26 | 12 | 83 | 81 | 51* % | 6 | none of the compounds displayed any significant effect on larval mortality | 0.9 | Reduction of recruitment (%) (M. edulis; TF paint, 0.01% in paint, listed as Barettin): 51%
3 | O=C1CNC(=O)/C(=C/c2c[nH]c3c2ccc2ccccc23)N1 [benzo[g]dipodazine] |  |  |  |  |  |  |  |  |  |  |  |  |  |  |  |  |  |  | reduction of settlement of B. Improvisus (B. improvisus; SPF paint, 0.01% by weight of paint): about 73%; reduction of settlement of B. Improvisus (B. improvisus; SPF paint, 0.1% by weight of paint): about 85%; inhibition of settlement of cyprids ([2]; 34 μM in dishes (FIG. 2A)): complete inhibition; reversibility: ability of cyprids to settle again in fresh seawater after exposure ([2]; totally inhibited cyprids transferred to fresh sea water (FSW) (FIG. 2B)): regained this capability when transferred to fresh sea water
4 | O=C1CNC(=O)C(=Cc2cc3ccccc3s2)N1 [compound 12, 3-[1-benzothiophen-2-yl-methylidene]-piperazine-2,5-dione] |  |  |  |  |  |  |  |  |  |  |  |  |  |  |  |  |  |  | melting point: 258 °C
